{"source": "patent US20230194511A1", "about": "“Compound Fixing Method, Detection Method, Screening Method, Substrate Used in Same, Compound Fixing Agent, and Fixing Kit” (priority 2020, published 2023)", "key": {"[1]": {"tested_on": "anti-penicillin [P2B9] antibodies", "assay": "Compound microarray, detection of immobilized compound with anti-penicillin [P2B9] antibodies", "format": "binding, mouse", "settings": "compound mixed with HSA, printed on glass slide", "excerpt": "(§1) Fourteen compounds (amoxicillin, ampicillin, apramycin, bacitracin, cefalexin, ceftazidime, cloxacillin, gentamicin, hygromycin B, neomycin, penicillin G, streptomycin, sulfadimidine, and tetracycline) were each mixed with human serum albumin (HSA) (Sigma-Aldrich) and printed on glass slides. Further, compounds of bovine serum albumin (BSA) covalently bonded to these 14 compounds in advance (Imgen BioSciences) were printed on glass slides as control samples for comparison. The compounds mixed with HSA were each dissolved in solution A for protein microarrays only (Fukushima Protein Factory) to a concentration of 0.5 mM. Furthermore, HSA was prepared and mixed with the solutions A including the compounds, bringing the final concentrations to 0.1 micrograms/microliter. It should be noted that the printing of each compound on a glass slide was performed by spotting microdroplets of approximately 2 to 4 nl on the glass slide by using an ultratrace dispensing system (Micro Diagnostic).\n(§2) The compound microarrays printed with the compounds were immersed in ethanol and shaken for 30 seconds at room temperature. Subsequently, the compound microarrays were immersed in ultrapure water and shaken for 30 seconds at 26° C. […]\n(§3) The compound microarrays were dried, centrifuged at 1500 rpm for one minute, and scanned for fluorescence intensity using a GenePix 4000B (Molecular Devices, Calif., USA). […]"}, "[2]": {"tested_on": "anti-prostaglandin E2 antibody", "assay": "Prostaglandin-HSA compound microarray, detection with anti-prostaglandin E2 antibody (Example 5)", "format": "binding", "settings": "prostaglandin mixed with HSA 0.1 milligram/milliliter, printed on glass slide", "method": "The immobilization of prostaglandins, which are bioactive lipids, was verified. In this example, as the prostaglandins, prostaglandins A1, A2, A3, B1, B2, B3, D1, D2, D3, E1, E2, E3, F1a, F2a, F3a, G2, H1, H2, I2, I3, J2, K1, and K2 were used. The prostaglandins were mixed with HSA in the solvents and at the final concentrations shown in the table below to form prostaglandin and HSA complexes. It should be noted that HSA was added to achieve a final concentration of 0.1 milligram/milliliter.\nSolutions including each prepared prostaglandin and HSA were spotted and printed on glass slides as microdroplets of approximately 2 to 4 nl by using an ultratrace dispensing system (Micro Diagnostic).\n(§4) The compound microarrays printed with the prostaglandins were immersed in ethanol and shaken for 30 seconds at room temperature. Subsequently, the compound microarrays were immersed in ultrapure water and shaken for 30 seconds at 26° C. The shaking by ultrapure water was performed twice. For solution replacement, the compound microarrays were immersed in solution A for protein microarrays only (Fukushima Protein Factory, Fukushima, Japan) and shaken for about five minutes at 26° C.\n(§5) The compound microarrays treated as described above were immersed in Blocking One (Nacalai Tesque, Kyoto, Japan) and shaken for one hour at 26° C. Subsequently, the compound microarrays were immersed in solution A for protein microarrays only and shaken for about five minutes at 26° C.\n(§6) Using a solution obtained by adding 1/4000 volume of Goat Reference Antibody Mixture I (Fukushima Protein Factory) to the primary antibody diluent for protein microarrays only (Fukushima Protein Factory), an anti-prostaglandin E2 antibody (Ab00484-23.0, Absolute Antibody) was diluted to 1 microgram/milliliter.\n(§7) Two milliliters of the solution with the diluted primary antibody were added to a P-DE1 cassette for protein microarrays (Fukushima Protein Factory). […]"}, "[3]": {"tested_on": "anti-amoxicillin antibodies", "assay": "Compound microarray, detection of immobilized compound with anti-amoxicillin antibodies", "format": "binding, mouse", "settings": "concentrations of HSA from 0.5 mM to 0.0005 mM, glass slide", "method": "as §1, with “Further,” for “Fourteen compounds (amoxicillin, ampicillin, apramycin, bacitracin, cefalexin, ceftazidime, cloxacillin, gentamicin, hygromycin B, neomycin, penicillin G, streptomycin, sulfadimidine, and tetracycline) were each mixed with human serum albumin (HSA) (Sigma-Aldrich) and printed on glass slides. Further,”\nas §4, with “the compounds” for “the prostaglandins”, “C. It should be noted that the” for “C. The”\nas §5\nas §6, with “one of eight mouse monoclonal anti-compound antibodies (Table 2)” for “an anti-prostaglandin E2 antibody (Ab00484-23.0, Absolute Antibody)”\nas §7"}, "[4]": {"tested_on": "anti-ampicillin antibodies", "assay": "Compound microarray, detection of immobilized compound with anti-ampicillin antibodies", "format": "binding, mouse", "settings": "compound 0.5 mM mixed with HSA 0.1 micrograms/microliter, printed on glass slide", "excerpt": "as §1, §2, §3"}, "[5]": {"tested_on": "anti-streptomycin antibodies", "assay": "Compound microarray, detection of immobilized compound with anti-streptomycin antibodies", "format": "binding, mouse", "settings": "compound mixed with HSA, printed on glass slide", "excerpt": "as §1, §2, §3"}, "[6]": {"tested_on": "anti-dihydrosterptomycin [1.BB.891]", "assay": "Compound microarray, detection of immobilized compound with anti-dihydrostreptomycin antibody [1.BB.891]", "format": "binding, mouse", "settings": "compound mixed with HSA, printed on glass slide", "excerpt": "as §1, §2, §3"}, "[7]": {"tested_on": "streptomycin/dihydrostreptomycin [CH-2013]", "assay": "Compound microarray, detection of immobilized compound with streptomycin/dihydrostreptomycin antibody [CH-2013]", "format": "binding, mouse", "settings": "compound mixed with HSA, printed on glass slide", "excerpt": "as §1, §2, §3"}, "[8]": {"tested_on": "anti-penicillin antibodies", "assay": "Compound microarray, detection with anti-penicillin antibodies (Examples 3 and 4, clone not stated)", "format": "binding", "settings": "concentrations of HSA from 0.5 mM to 0.0005 mM, glass slide"}, "[9]": {"tested_on": "anti-gentamycin antibodies", "assay": "Compound microarray, detection of immobilized compound with anti-gentamycin antibodies", "format": "binding, mouse", "method": "as §1, with “Further,” for “Fourteen compounds (amoxicillin, ampicillin, apramycin, bacitracin, cefalexin, ceftazidime, cloxacillin, gentamicin, hygromycin B, neomycin, penicillin G, streptomycin, sulfadimidine, and tetracycline) were each mixed with human serum albumin (HSA) (Sigma-Aldrich) and printed on glass slides. Further,”\nas §4, with “the compounds” for “the prostaglandins”, “C. It should be noted that the” for “C. The”\nThe compound microarrays treated as described above were immersed in Blocking One (Nacalai Tesque, Kyoto, Japan) and shaken for one hour at 26° C. […]"}}, "data": [{"compound": "CC1(C)S[C@@H]2[C@H](NC(=O)Cc3ccccc3)C(=O)N2[C@H]1C(=O)O", "note": "[penicillin G]", "values": [{"measurement": "signal (Red Intensity)", "setting": "[1]", "result": "weak signal"}]}, {"compound": "CC/C=C\\C[C@H](O)/C=C/[C@H]1[C@H](O)CC(=O)[C@@H]1C/C=C\\CCCC(=O)O", "note": "[Prostaglandin E3]", "values": [{"measurement": "reaction of the anti-prostaglandin E2 antibody (fluorescence intensity)", "setting": "[2]", "result": "reacted strongly"}]}, {"compound": "CC1(C)S[C@@H]2[C@H](NC(=O)[C@H](N)c3ccc(O)cc3)C(=O)N2[C@H]1C(=O)[O-].[Na+]", "note": "[amoxicillin sodium]", "values": [{"measurement": "concentration of HSA at which the strongest signal was detected", "setting": "[3]", "result": 0.05, "unit": "mM"}, {"measurement": "signal intensity versus HSA concentration", "setting": "[3]", "result": "tended to be concentration-dependent"}]}, {"compound": "CC1(C)S[C@@H]2[C@H](NC(=O)[C@H](N)c3ccccc3)C(=O)N2[C@H]1C(=O)O", "note": "[ampicillin]", "values": [{"measurement": "signal (Red Intensity)", "setting": "[4]", "result": "strong signal (strong signals (red intensity of 2000 or greater; the same below))"}]}, {"compound": "[H]/N=C(/N)N[C@H]1[C@H](O)[C@@H](O)[C@H](O[C@@H]2O[C@@H](C)[C@](O)(C=O)[C@H]2O[C@@H]2O[C@@H](CO)[C@H](O)[C@@H](O)[C@@H]2NC)[C@@H](N/C(N)=N\\[H])[C@@H]1O", "note": "[streptomycin]", "values": [{"measurement": "signal (Red Intensity)", "setting": "[5]", "result": "weak signal"}, {"measurement": "signal (Red Intensity)", "setting": "[6]", "result": "weak signal"}, {"measurement": "signal (Red Intensity)", "setting": "[7]", "result": "weak signal"}]}, {"compound": "CC1(C)S[C@@H]2[C@H](NC(=O)[C@H](N)c3ccc(O)cc3)C(=O)N2[C@H]1C(=O)O", "note": "[amoxicillin]", "values": [{"measurement": "signal intensity versus HSA concentration", "setting": "[3]", "result": "increased in an HSA concentration-dependence"}]}, {"compound": "CC1(C)S[C@@H]2[C@H](NC(=O)Cc3ccccc3)C(=O)N2[C@H]1C(=O)[O-].[Na+]", "note": "[penicillin G sodium]", "values": [{"measurement": "signal intensity versus HSA concentration", "setting": "[8]", "result": "increased in an HSA concentration-dependence"}]}, {"compound": "CCCCC[C@H](O)/C=C/[C@H]1[C@H](O)CC(=O)[C@@H]1C/C=C\\CCCC(=O)O", "note": "[Prostaglandin E2]", "values": [{"measurement": "reaction of the anti-prostaglandin E2 antibody (fluorescence intensity)", "setting": "[2]", "result": "reacted strongly"}]}, {"compound": "gentamycin sulfate", "values": [{"measurement": "signal (red intensity)", "setting": "[9]; compound 0.5 mM mixed with each immobilizing protein or HSA (0.1 micrograms/microliter), strong only with this antibody", "result": "strong signal (strong signals (red intensity of 2000 or greater; the same below))"}, {"measurement": "signal intensity versus HSA concentration", "setting": "[9]; concentrations of HSA from 0.5 mM to 0.0005 mM, glass slide", "result": "increased in an HSA concentration-dependence"}]}, {"compound": "CCCCC[C@H](O)/C=C/[C@@H]1[C@H]2C/C(=C/CCCC(=O)O)O[C@H]2C[C@H]1O", "note": "[Prostaglandin I2]", "values": [{"measurement": "reaction of the anti-prostaglandin E2 antibody (fluorescence intensity)", "setting": "[2]", "result": "reacted strongly"}]}]}
